ChEMBL document CHEMBL1201862, “PubChem BioAssay data set” (2004)
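1) Cells in 96-well plates. 2) Compound, 48 h, 5 concentrations. 3) Linear interpolation between surrounding doses. 4) Unreached endpoint = highest concentration. Here, GI50 denotes the concentration required for 50% inhibition of growth.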 The source made the active and inactive calls. Rule as the data show it: active = GI50 up to about 1.1 µM and inactive = higher.

Legend:
Assay in all cases: DTP human tumour cell line panel, 48 h
786-0 = system: 786-0
A549 = system: A549
EKVX = system: EKVX
HOP-62 = system: HOP-62
M14 = system: M14
NCI-H460 = system: NCI-H460
NCI-H522 = system: NCI-H522
OVCAR-3 = system: OVCAR-3
RXF 393 = system: RXF 393
SK-MEL-28 = system: SK-MEL-28
SK-OV-3 = system: SK-OV-3
SNB-19 = system: SNB-19
SNB-75 = system: SNB-75
UO-31 = system: UO-31
RPMI-8226 = system: RPMI-8226

Row | SMILES | GI50 (786-0) | GI50 (A549) | GI50 (EKVX) | GI50 (HOP-62) | GI50 (M14) | GI50 (NCI-H460) | GI50 (NCI-H522) | GI50 (OVCAR-3) | GI50 (RXF 393) | GI50 (SK-MEL-28) | GI50 (SK-OV-3) | GI50 (SNB-19) | GI50 (SNB-75) | GI50 (UO-31) | GI50 (RPMI-8226)
1 | CC(C)(C)OC(=O)c1cccnc1/C=N/O | 67.6 µM (inactive) | > 100 µM (inactive) | > 100 µM (inactive) | > 100 µM (inactive) | > 100 µM (inactive) | 48.4 µM (inactive) | > 100 µM (inactive) | 53.1 µM (inactive) | > 100 µM (inactive) | > 100 µM (inactive) | > 100 µM (inactive) | > 100 µM (inactive) | > 100 µM (inactive) | > 100 µM (inactive) | –
2 | COC(CC1(OC)OC(=O)C=C1N)OC (stereo not drawn) | > 100 µM (inactive) | > 100 µM (inactive) | > 100 µM (inactive) | > 100 µM (inactive) | > 100 µM (inactive) | > 100 µM (inactive) | > 100 µM (inactive) | > 100 µM (inactive) | – | > 100 µM (inactive) | > 100 µM (inactive) | > 100 µM (inactive) | 76.7 µM (inactive) | > 100 µM (inactive) | > 100 µM (inactive)
3 | O=C1c2ccccc2C(=O)N1C/C=N/NS(=O)(=O)c1cccc([N+](=O)[O-])c1 | > 100 µM (inactive) | > 100 µM (inactive) | > 100 µM (inactive) | > 100 µM (inactive) | > 100 µM (inactive) | > 100 µM (inactive) | > 100 µM (inactive) | – | > 100 µM (inactive) | – | – | > 100 µM (inactive) | > 100 µM (inactive) | > 100 µM (inactive) | > 100 µM (inactive)
4 | CCC(=O)c1c(NOC2OC(COC(C)=O)C(OC(C)=O)C(OC(C)=O)C2OC(C)=O)nc(OC)n(C)c1=O (stereo not drawn) | > 100 µM (inactive) | > 100 µM (inactive) | > 100 µM (inactive) | > 100 µM (inactive) | > 100 µM (inactive) | > 100 µM (inactive) | > 100 µM (inactive) | – | > 100 µM (inactive) | > 100 µM (inactive) | – | > 100 µM (inactive) | > 100 µM (inactive) | – | –
5 | CCOC(=O)NC(=O)c1cn(CCCOC(=O)NCCCCCCNC(=O)OCCCn2cc(C(=O)NC(=O)OCC)c(=O)[nH]c2=O)c(=O)[nH]c1=O | 20 µM (inactive) | > 100 µM (inactive) | > 100 µM (inactive) | 40.1 µM (inactive) | 20.4 µM (inactive) | 77.4 µM (inactive) | – | 17.4 µM (inactive) | > 10 µM (inactive) | 28.3 µM (inactive) | 66.1 µM (inactive) | 28.6 µM (inactive) | 23.3 µM (inactive) | – | 14.1 µM (inactive)
6 | CC(=O)CC(=O)CCC(=O)Nc1cccc(C(F)(F)F)c1 | > 100 µM (inactive) | > 100 µM (inactive) | > 100 µM (inactive) | > 100 µM (inactive) | > 100 µM (inactive) | > 100 µM (inactive) | > 100 µM (inactive) | > 100 µM (inactive) | – | – | > 100 µM (inactive) | > 100 µM (inactive) | – | > 100 µM (inactive) | > 100 µM (inactive)
7 | CC(=O)c1ccc(NC(=O)C(=O)C(C(=O)/C=C/c2ccccc2)C2OC(=O)c3ccccc32)cc1 (stereo not drawn) | > 100 µM (inactive) | > 100 µM (inactive) | > 100 µM (inactive) | > 100 µM (inactive) | > 100 µM (inactive) | > 100 µM (inactive) | > 100 µM (inactive) | – | > 100 µM (inactive) | > 100 µM (inactive) | > 100 µM (inactive) | > 100 µM (inactive) | > 100 µM (inactive) | > 100 µM (inactive) | 54.2 µM (inactive)
8 | Cn1cc(NC(=O)c2cc(NC(=O)CCCCCC(=O)Nc3cc(C(=O)Nc4cc(C(=O)NCCC(=N)N)n(C)c4)n(C)c3)cn2C)cc1C(=O)NCCC(=N)N | > 100 µM (inactive) | 45.3 µM (inactive) | > 100 µM (inactive) | – | > 100 µM (inactive) | 26.4 µM (inactive) | – | > 100 µM (inactive) | > 100 µM (inactive) | 25.2 µM (inactive) | > 100 µM (inactive) | > 100 µM (inactive) | > 100 µM (inactive) | > 100 µM (inactive) | –
9 | N#C/C(=C/c1cccc2ccccc12)C(=O)c1ccccc1 | 16.3 µM (inactive) | > 10 µM (inactive) | > 10 µM (inactive) | 18.3 µM (inactive) | 16.9 µM (inactive) | 27.5 µM (inactive) | 21.5 µM (inactive) | 48.6 µM (inactive) | – | 13.9 µM (inactive) | > 100 µM (inactive) | 19.9 µM (inactive) | – | 18.4 µM (inactive) | 22.3 µM (inactive)
10 | O=c1cccccc1O.O=c1cccccc1O.O=c1cccccc1O.[SiH4] | 33 µM (inactive) | 25.6 µM (inactive) | < 0.01 µM (active) | 28.4 µM (inactive) | 33.5 µM (inactive) | – | 2.33 µM (inactive) | 24.2 µM (inactive) | – | 55.1 µM (inactive) | 31.8 µM (inactive) | > 100 µM (inactive) | 29.1 µM (inactive) | 25.2 µM (inactive) | 9.73 µM (inactive)
